Legend:
Format in all cases: cell-based
[1] = test system: fishpond water algae, especially abundant in Chlorophyta; assay: Growth inhibition of algae in fishpond water, chlorophyll-a content by spectrometry; settings: 100 ppm glucosamine
Experimental: In order to test if glucosamine inhibited the growth of algae or not, in the following embodiment, glucosamine was added to samples and then observed. Moreover, since chlorophyll-a content of algae is widely used as an indicator of the quality of freshwater bodies and the abundance of algae, the chlorophyll-a content in the sample was detected by spectrometry.
First, two 20 ml portions of water were obtained from a fishpond which contains a varieties of algae and is especially abundant in Chlorophyta. Both portions of water were labeled as control and sample I respectively. Next, 100 ppm glucosamine was added in sample I, and then the control and sample I were cultured for 28 days with Bold's medium.
The solution of the control and sample I were centrifuged at 10000 rpm at 20° C. for 3 hours, and then the supernatant were poured out. Next, two 10 ml portions of 95% (v/v) ethanol were added to sample I and the control and mixed with the residues. […] Then, the absorbance at 665 nm of the control and sample I were detected. Finally, according to the “Standard Methods for the Examination Chlorophyll-a in Water-Ethanol Extraction” issued by National Indian Education Association, Taiwan (NIEA E508.00B), the absorbance at 665 nm of the control and sample I were calibrated and the concentration of Chlorophyll-a content can be calculated by the absorbance measure.

[2] = test system: Microcystis aeruginosa; assay: Growth inhibition of Cyanobacteria, chlorophyll-a content
Experimental: (§1) The solution of the control and sample I were centrifuged at 10000 rpm at 20° C. for 3 hours, and then the supernatant were poured out. Next, two 10 ml portions of 95% (v/v) ethanol were added to sample I and the control and mixed with the residues. Next, the solution of sample I and the control were water-bathed in 60° C. water for 30 mins to extract Chlorophyll-a. When being bathed in the water, the solution of the control and sample I were shaken every ten minutes. After that, the solutions were centrifuged at 5000 G at 20° C. for 15 minutes and the supernatants were kept. Then, the absorbance at 665 nm of the control and sample I were detected. Finally, according to the “Standard Methods for the Examination Chlorophyll-a in Water-Ethanol Extraction” issued by National Indian Education Association, Taiwan (NIEA E508.00B), the absorbance at 665 nm of the control and sample I were calibrated and the concentration of Chlorophyll-a content can be calculated by the absorbance measure.
(§2) To verify whether Cyanobacteria can be inhibited by glucosamine or not, in the following embodiment, two kinds of toxic Cyanobacteria, Microcystis aeruginosa and […]. The detailed procedures are described below.
(§3) First, four 50 ml portions of water with Microcystis aeruginosa were obtained and labeled as control and sample II, sample III, and sample IV respectively. The weight concentration of Microcystis aeruginosa cell in these four samples 883 μg/L (ppb). Next, different amount of glucosamine was added into the three samples so that the concentrations of glucosamine in samples II, III, and IV were 10 ppm, 20 ppm, and 50 ppm, respectively. After that, the control and sample II, III, and IV were cultured for 14 days with Bold's medium, and the Chlorophyll-a content of each sample were detected every 7 days. The procedures of detecting Chlorophyll-a content was the same as mentioned in embodiment I and the whole process was repeated for testing Microcystis flos-aquae.

[3] = test system: Microcystis flos-aquae; assay: as above
Experimental: as §1, §2, §3

[4] = Microcystis aeruginosa, 336 h, read-out: Inhibition efficiency (after 14 days)

SMILES: N[C@H]1C(O)O[C@H](CO)[C@@H](O)[C@@H]1O (stereo partly drawn) [glucosamine]
- algae bloom observed after culture ([1]; 28 days, Bold's medium): the algae in the control bloomed, but not sample I
- concentration of Chlorophyll-a content ([1]; cultured 28 days with Bold's medium, control 652 ppb): 74 ppb
- minimum effective amount of glucosamine ([2]; 10 ppm divided by 0.883 mg (weight concentration of Cyanobacteria 0.883 mg/L)): at least 10 ppm/mg algae
- Chlorophyll-a content ([2]; 10 ppm glucosamine (Sample II), 7th day, control 270 ppb): 80 ppb
- Chlorophyll-a content ([2]; 10 ppm glucosamine (Sample II), 14th day, control 2657 ppb): 1922 ppb
- Chlorophyll-a content ([2]; 20 ppm glucosamine (Sample III), 7th day, control 270 ppb): 65 ppb
- Chlorophyll-a content ([2]; 20 ppm glucosamine (Sample III), 14th day, control 2657 ppb): 1004 ppb
- Chlorophyll-a content ([2]; 50 ppm glucosamine (Sample IV), 7th day, control 270 ppb): 41 ppb
- Chlorophyll-a content ([2]; 50 ppm glucosamine (Sample IV), 14th day, control 2657 ppb): 72.3 ppb
- inhibition at 10 ppm [2, 4]: 27.6%
- inhibition at 20 ppm [2, 4]: 62.2%
- inhibition at 50 ppm [2, 4]: 97.2%
- Chlorophyll-a content ([3]; 10 ppm glucosamine (Sample V), 7th day, control 178 ppb): 0 ppb
- Chlorophyll-a content ([3]; 10 ppm glucosamine (Sample V), 14th day, control 438 ppb): 225 ppb
- Chlorophyll-a content ([3]; 20 ppm glucosamine (Sample VI), 7th day, control 178 ppb): 3 ppb
- Chlorophyll-a content ([3]; 20 ppm glucosamine (Sample VI), 14th day, control 438 ppb): 142 ppb
- Chlorophyll-a content ([3]; 50 ppm glucosamine (Sample VII), 7th day, control 178 ppb): 15 ppb
- Chlorophyll-a content ([3]; 50 ppm glucosamine (Sample VII), 14th day, control 438 ppb): 92 ppb
- inhibition at 10 ppm ([3]; Microcystis flos-aquae, 336 h, 10 ppm glucosamine (Sample V), read-out: Inhibition efficiency (after 14 days)): 48.6%
- inhibition at 20 ppm ([3]; Microcystis flos-aquae, 336 h, 20 ppm glucosamine (Sample VI), read-out: Inhibition efficiency (after 14 days)): 67.5%
- inhibition at 50 ppm ([3]; Microcystis flos-aquae, 336 h, 50 ppm glucosamine (Sample VII), read-out: Inhibition efficiency (after 14 days)): 78.9%

— patent US7612049B2, “Method of inhibition the growth of algae” (priority 2007, dated 2009)
